Results reported in PMC10458471, “Electrophysiological Assessment of Newly Synthesized 2,3-Benzodiazepine Derivatives for Inhibiting the AMPA Receptor Channel” (Molecules, 2023).
Read-outs that look alike come from different tables or passages of the source.

Tests used:
[1] = target: T1, GluA2 (Rattus norvegicus, UniProt P19491); assay: Whole-cell patch-clamp recording of homomeric GluA2 AMPAR expressed in HEK293T cells; format: cell-based
T1 construct: expressed in transfected cells; host or cells: HEK293T
Description: (§1) For the DNA preparation, the QIAGEN Plasmid Mini Kit was used to prepare up to 20 µg of high-copy plasmid DNA [30]. All AMPAR subunits utilized in this study included the flip isoform received from S. F. Heinemann (Salk Institute, La Jolla, CA, USA) and sub-cloned in pRK for expression in Human Embryonic Kidney Cells 293 (HEK293T). The human embryonic kidney (HEK293T) cells were obtained from Sigma, Taufkirchen, Germany, and we only used the HEK293T cell line due to their ease of growth and transfection and wide utilization in cell culture. For the transfection, we used the constructs GluA1, GluA2, GluA2/3, and GluA1/2, along with the GFP-expressing construct, as described in our previous work. The transfection reagents utilized were jetPRIME (Polyplus: New York, NY, USA) or Lipofectamine 2000 (Invitrogen; San Diego, CA, USA). The highly fluorescent cells were identified and selected for recording. The selected cells were seeded in Dulbecco Modified Eagle Medium (DMEM) (Sigma, Roedermark, Germany) containing 10% FBS, 0.1 mg/mL streptomycin, and 1 mM sodium pyruvate (Biological Industries; Beit-Haemek, Israel). The cells were incubated at 37 °C with 5% CO2 added to the medium and subcultured twice a week until they reached passage #20. Following a day and a half, the cells were replated on coverslips covered with Laminin (1 mg/mL; Sigma, Roedermark, Germany) for electrophysiological recordings. Our previous work has detailed the DNA preparation, cDNA transient transfection, and cell culture of HEK293T [30, 31, 32, 33].
(§2) After that, a patch was placed in front of a rapid perfusion system comprised of a theta tube flow pipe mounted on a piezoelectric translator that was used to wash the cell continuously from one barrel while the other supplied the compound of interest to the cell. Recordings were conducted 36–48 h after transfection at 22 °C, with a membrane potential of −60 mV. Currents were amplified using an integrated patch amplifier (IPA, Sutter Instruments, Novato, CA, USA), filtered at 2 kHz, and digitized at 10 kHz using SutterPatch Software v. 1.1.1 [46]. […] The extracellular medium contained (in mM): 150 NaCl, 2.8 KCl, 0.5 MgCl2, 2 CaCl2, and 10 HEPES, pH 7.4 adjusted with NaOH. The holding potential was typically −60 mV. The sample size was determined to be eight viable cells to calculate the mean inhibition of the derivative of interest. The solution exchange time (10–90% to peak) was estimated at […] using open-tip control at the end of a recording. Inhibition was calculated by comparing the current observed when the cell was supplied with glutamate alone and when the same cell was supplied with both glutamate and the 2,3-BDZ compounds. The initial tube containing only glutamate was reintroduced to the cell to ensure cellular safety and authenticate the antagonist’s findings. This step ensured that the glutamate-induced current observed before the administration of the antagonist was nearly indistinguishable from the current observed after administration.
(§3) The experiment served two purposes: first, determining the whole-cell current amplitude ratio in the absence and presence of the compounds (A/AI) to derive a constant inhibitory value independent of the rate measurement. Second, as an independent control method, a fast exchange solution flow methodology was employed using piezoelectric actuators, providing the fastest exchange solution with open-tip current rise times in the 100–300 μs range to assess the amplitude of the whole-cell current. Detailed data analysis of this process is provided in the supporting information (Tables S1–S4).
(§4) The data acquired were analyzed using Igor Pro7 (Wave Metrics, Inc., Portland, OR, USA). Receptor desensitization (τw des) and deactivation rates were estimated by fitting the current decay starting from 95% of the peak to the baseline current using a double exponential formulation. […]

[2] = system: AMPA receptor subunits; assay: Whole-cell patch-clamp recording, statements over all tested AMPAR subunits (GluA1, GluA1/2, GluA2, GluA2/3) in HEK293T cells; format: cell-based; details: 16 µM compound
Description: as §1, §2, §3, §4

[3] = target: T2, GluA2/3 (Rattus norvegicus, UniProt P19491+P19492); assay: Whole-cell patch-clamp recording of heteromeric GluA2/3 AMPAR expressed in HEK293T cells; format: cell-based
T2 construct: expressed in transfected cells; host or cells: HEK293T
Description: as §1, §2, §3, §4

[4] = target: T3, GluA1 (Rattus norvegicus, UniProt P19490); assay: Whole-cell patch-clamp recording of homomeric GluA1 AMPAR expressed in HEK293T cells; format: cell-based
T3 construct: expressed in transfected cells; host or cells: HEK293T
Description: as §1, §2, §3, §4

[5] = target: T4, GluA1/2 (Rattus norvegicus, UniProt P19490+P19491); assay: Whole-cell patch-clamp recording of heteromeric GluA1/2 AMPAR expressed in HEK293T cells; format: cell-based
T4 construct: expressed in transfected cells; host or cells: HEK293T
Description: as §1, §2, §3, §4

[6] = 10 mM glutamate + 16 µM compound, -60 mV, pH 7.4, 22 °C, mean±SEM, n=8
[7] = 10 mM glutamate, 16 µM compound, n=8
[8] = 1 ms 10 mM glutamate + 16 µM compound, n=8
[9] = 500 ms 10 mM glutamate + 16 µM compound, n=8
[10] = log of IC50, read-out: Log IC50 (converted)
[11] = normalized peak current, -60 mV, pH 7.4, 22 °C, read-out: IC50
[12] = washout/recovery, glutamate alone after compound, n=8

T3 sequence (P19490 19-907 isoform P19490-2 limits assumed): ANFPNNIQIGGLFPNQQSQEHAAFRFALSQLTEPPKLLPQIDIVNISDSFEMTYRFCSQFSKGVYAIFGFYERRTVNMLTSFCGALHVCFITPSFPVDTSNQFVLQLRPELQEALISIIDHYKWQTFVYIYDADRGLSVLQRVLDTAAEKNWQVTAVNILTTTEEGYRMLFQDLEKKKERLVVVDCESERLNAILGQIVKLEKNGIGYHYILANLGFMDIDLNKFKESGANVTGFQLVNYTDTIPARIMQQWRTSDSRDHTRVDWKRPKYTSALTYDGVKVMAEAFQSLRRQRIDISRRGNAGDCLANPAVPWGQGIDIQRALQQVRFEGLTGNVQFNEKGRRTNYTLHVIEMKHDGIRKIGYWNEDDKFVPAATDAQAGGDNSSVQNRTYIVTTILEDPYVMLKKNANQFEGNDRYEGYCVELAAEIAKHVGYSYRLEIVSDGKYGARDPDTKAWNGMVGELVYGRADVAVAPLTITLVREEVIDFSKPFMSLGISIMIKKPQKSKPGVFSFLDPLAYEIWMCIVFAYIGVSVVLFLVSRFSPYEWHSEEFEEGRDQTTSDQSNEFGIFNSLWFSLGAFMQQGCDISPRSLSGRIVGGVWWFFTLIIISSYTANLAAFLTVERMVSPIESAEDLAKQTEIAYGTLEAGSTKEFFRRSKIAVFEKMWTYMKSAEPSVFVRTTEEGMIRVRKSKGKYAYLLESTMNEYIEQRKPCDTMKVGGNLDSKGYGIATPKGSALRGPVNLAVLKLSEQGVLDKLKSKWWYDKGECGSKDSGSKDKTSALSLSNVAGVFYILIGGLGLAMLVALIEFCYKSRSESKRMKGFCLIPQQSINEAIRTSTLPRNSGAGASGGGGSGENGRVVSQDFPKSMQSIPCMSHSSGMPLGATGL
T4 sequence (P19490 19-907 isoform P19490-2 limits assumed): as above
T4 sequence (P19491 22-883 isoform P19491-2 limits assumed): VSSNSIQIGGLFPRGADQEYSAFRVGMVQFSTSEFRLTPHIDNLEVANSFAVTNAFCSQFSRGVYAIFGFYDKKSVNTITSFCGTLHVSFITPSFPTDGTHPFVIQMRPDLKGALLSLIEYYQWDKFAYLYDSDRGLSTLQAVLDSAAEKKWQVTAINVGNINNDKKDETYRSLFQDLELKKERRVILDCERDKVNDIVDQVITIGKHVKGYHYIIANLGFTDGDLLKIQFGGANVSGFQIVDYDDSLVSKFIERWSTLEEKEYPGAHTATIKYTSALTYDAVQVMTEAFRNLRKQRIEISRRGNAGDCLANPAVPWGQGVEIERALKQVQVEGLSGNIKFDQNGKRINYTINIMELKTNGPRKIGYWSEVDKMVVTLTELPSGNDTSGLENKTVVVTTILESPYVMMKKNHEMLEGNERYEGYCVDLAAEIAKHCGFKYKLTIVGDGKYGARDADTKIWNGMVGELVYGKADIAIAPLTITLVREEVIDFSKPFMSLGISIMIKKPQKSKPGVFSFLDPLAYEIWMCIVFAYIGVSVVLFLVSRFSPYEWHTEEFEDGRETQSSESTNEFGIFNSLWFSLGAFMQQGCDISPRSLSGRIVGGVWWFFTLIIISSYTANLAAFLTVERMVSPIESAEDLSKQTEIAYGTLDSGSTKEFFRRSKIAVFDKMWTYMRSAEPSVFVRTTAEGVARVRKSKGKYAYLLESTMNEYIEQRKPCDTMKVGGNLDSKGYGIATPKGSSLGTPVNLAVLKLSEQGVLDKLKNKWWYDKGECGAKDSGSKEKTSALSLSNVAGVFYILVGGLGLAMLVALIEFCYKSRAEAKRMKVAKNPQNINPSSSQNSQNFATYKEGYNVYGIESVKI
T2 sequence (P19491 22-883 isoform P19491-2 limits assumed): as above
T2 sequence (P19492 23-888 isoform P19492-2 limits assumed): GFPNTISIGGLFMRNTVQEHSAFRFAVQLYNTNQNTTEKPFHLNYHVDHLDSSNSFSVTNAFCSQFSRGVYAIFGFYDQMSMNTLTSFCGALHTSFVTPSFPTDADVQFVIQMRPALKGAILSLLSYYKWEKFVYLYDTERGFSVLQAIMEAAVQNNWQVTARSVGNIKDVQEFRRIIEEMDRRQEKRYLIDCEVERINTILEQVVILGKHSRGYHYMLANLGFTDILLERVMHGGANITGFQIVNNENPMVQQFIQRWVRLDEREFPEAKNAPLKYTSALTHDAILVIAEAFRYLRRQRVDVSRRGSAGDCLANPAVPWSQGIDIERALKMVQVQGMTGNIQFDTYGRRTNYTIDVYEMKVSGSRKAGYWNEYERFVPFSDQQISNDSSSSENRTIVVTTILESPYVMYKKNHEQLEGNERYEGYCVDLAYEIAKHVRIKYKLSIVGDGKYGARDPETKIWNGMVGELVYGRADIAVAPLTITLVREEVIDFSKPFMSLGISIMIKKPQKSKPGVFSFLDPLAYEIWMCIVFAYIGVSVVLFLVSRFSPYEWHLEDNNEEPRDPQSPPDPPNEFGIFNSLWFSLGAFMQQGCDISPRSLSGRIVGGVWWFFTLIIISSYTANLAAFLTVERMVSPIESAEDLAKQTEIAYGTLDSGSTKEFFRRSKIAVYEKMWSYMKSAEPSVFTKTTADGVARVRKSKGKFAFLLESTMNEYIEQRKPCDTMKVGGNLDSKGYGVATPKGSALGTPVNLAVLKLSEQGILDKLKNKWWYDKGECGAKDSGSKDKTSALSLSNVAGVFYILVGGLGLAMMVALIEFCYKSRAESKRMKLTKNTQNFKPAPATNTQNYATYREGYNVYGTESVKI
T1 sequence (P19491 22-883 isoform P19491-2 limits assumed): as the sequence (P19491 22-883 isoform P19491-2 limits assumed) above

Amplitude with compound [1, 6]: 326±17 pA
A/AI (current amplitude ratio without/with compound) [1, 7]: 4.16±0.2
t deact (weighted deactivation time constant) [1, 8]: 2.8 ± 0.1 ms
IC50 [1, 10]: 5.75 µM
IC50 [1, 11]: 5.74 µM
Amplitude with compound [3, 6]: 130±12 pA
A/AI (current amplitude ratio without/with compound) [3, 7]: 4.08±0.3
t deact (weighted deactivation time constant) [3, 8]: 2.9 ± 0.2 ms
IC50 [3, 10]: 5.75 µM
IC50 [3, 11]: 5.76 µM
Amplitude, applying glutamate alone after compound [3, 12]: 525±22 pA
Amplitude with compound [4, 6]: 237±12 pA
A/AI (current amplitude ratio without/with compound) [4, 7]: 3.94±0.2
t deact (weighted deactivation time constant) [4, 8]: 2.4 ± 0.1 ms
IC50 [4, 10]: 5.75 µM
IC50 [4, 11]: 5.8 µM
Amplitude, applying glutamate alone after compound [4, 12]: 936±46 pA
melting point: 182 to 184 °C
Amplitude with compound [5, 6]: 144±11 pA
A/AI (current amplitude ratio without/with compound) [5, 7]: 3.98±0.2
t deact (weighted deactivation time constant) [5, 8]: 2.8 ± 0.2 ms
IC50 [5, 10]: 5.75 µM
IC50 [5, 11]: 5.79 µM
Amplitude, applying glutamate alone after compound [5, 12]: 569±43 pA
SMILES: O=C1Cc2cc3c(cc2C(c2ccc([N+](=O)[O-])cc2F)=NN1)OCO3 [2,3-BDZ-3]
t des (weighted desensitization time constant) [1, 9]: 2.3 ± 0.1 ms
Effect on desensitization rate [2]: no change
Reduction in AMPAR subunit currents [2]: 4 fold
Effect on deactivation rate of the AMPAR subunits examined ([2]; 1 ms glutamate): no change
t des (weighted desensitization time constant) [3, 9]: 2.5 ± 0.2 ms
t des (weighted desensitization time constant) [4, 9]: 2.1 ± 0.1 ms
t des (weighted desensitization time constant) [5, 9]: 4.9 ± 0.3 ms
